Columns and labels:
[1] = biological target: glucagon receptor (Rattus norvegicus, UniProt P30082); assay: Experiment for glucagon binding inhibition, rat hepatic membrane (125I-glucagon); settings: male SD rat hepatic membrane, 125I-glucagon 50 pM, 25° C. for 30 minutes; read-out: Glucagon binding inhibitory activity IC50 (nM) Rat
Protocol: (§1) The preparation of membrane from mouse and rat livers was carried out according to the method described in Bioorg. Med. Chem. Lett. 1992, 12, 915-918 in this experiment and ^125I-glucagon binding activity was measured with these membranes as glucagon receptor's samples. Livers were removed from male SD rats (about 250 g body weight per rat) and male ddY mice (about 30 g body weight per mouse). […] The homogenate was centrifuged for 15 minutes at 30,000×g. […] The precipitaion thus obtained was used as a hepatic membrane sample. […] The mixture was incubated at 25° C. for 30 minutes. […] The filter was washed 3 times with 50 mM Tris-HCl buffer (pH 7.2), and the radioactivity of the filter was measured by a γ counter (ARC-360, Aloka Co., Ltd.). […] Each experiment was carried out in duplicate. […] The concentration at 50% inhibition of binding (IC50) was calculated using a pseudo Hill plot.

[2] = biological target: glucagon receptor (Mus musculus, UniProt Q61606); assay: Experiment for glucagon binding inhibition, mouse hepatic membrane (125I-glucagon); settings: male ddY mouse hepatic membrane, 125I-glucagon 50 pM, 25° C. for 30 minutes; read-out: Glucagon binding inhibitory activity IC50 (nM) Mouse
Sequence of glucagon receptor (Mus musculus, UniProt Q61606) (Q61606 27-485): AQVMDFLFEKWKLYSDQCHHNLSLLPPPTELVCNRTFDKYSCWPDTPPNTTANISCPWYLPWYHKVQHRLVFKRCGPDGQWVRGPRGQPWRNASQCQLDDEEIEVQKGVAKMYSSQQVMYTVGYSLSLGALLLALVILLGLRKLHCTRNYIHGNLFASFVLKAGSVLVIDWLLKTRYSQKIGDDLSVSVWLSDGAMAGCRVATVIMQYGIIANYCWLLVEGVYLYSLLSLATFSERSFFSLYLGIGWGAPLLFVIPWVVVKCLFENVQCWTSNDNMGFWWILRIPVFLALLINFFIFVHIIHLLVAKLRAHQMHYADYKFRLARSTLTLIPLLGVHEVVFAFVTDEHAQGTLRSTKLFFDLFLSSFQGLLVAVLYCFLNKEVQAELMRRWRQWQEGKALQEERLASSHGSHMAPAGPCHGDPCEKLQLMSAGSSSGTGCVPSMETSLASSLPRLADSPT
Protocol: as §1

Sequence of glucagon receptor (Rattus norvegicus, UniProt P30082) (P30082 27-485): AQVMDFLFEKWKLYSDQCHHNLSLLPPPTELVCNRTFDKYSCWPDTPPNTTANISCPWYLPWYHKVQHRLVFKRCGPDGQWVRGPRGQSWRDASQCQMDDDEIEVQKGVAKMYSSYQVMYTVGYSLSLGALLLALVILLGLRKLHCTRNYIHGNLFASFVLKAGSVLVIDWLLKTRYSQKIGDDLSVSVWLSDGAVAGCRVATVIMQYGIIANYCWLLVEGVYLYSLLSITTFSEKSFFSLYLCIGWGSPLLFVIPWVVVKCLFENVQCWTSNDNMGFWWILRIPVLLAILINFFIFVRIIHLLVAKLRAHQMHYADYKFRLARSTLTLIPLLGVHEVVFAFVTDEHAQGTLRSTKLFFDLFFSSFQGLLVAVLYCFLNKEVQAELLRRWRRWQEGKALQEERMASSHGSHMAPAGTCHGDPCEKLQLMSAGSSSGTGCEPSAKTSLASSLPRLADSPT

| SMILES | melting point [°C] | IC50 [1] [nM] | IC50 [2] [nM] |
| --- | --- | --- | --- |
| CC(C)c1cccc(-c2ccoc2C(=O)NNC(=O)c2ccc(O)c([N+](=O)[O-])c2)c1 [Example 152, 3-(3-Isopropylphenyl)-2-furancarboxylic acid 2-(4-hydroxy-3-nitrobenzoyl)hydrazide] | 182 to 183 | 120 | 250 |
| CC(C)c1ccc(-c2ccoc2C(=O)NNC(=O)c2ccc(O)c([N+](=O)[O-])c2)cc1 [Example 153, 3-(4-Isopropylphenyl)-2-furancarboxylic acid 2-(4-hydroxy-3-nitrobenzoyl)hydrazide] | 194 to 196 | 24 | 18 |
| CCc1ccc(-c2ccoc2C(=O)NNC(=O)c2ccc(O)c([N+](=O)[O-])c2)cc1 [Example 156, 3-(4-Ethylphenyl)-2-furancarboxylic acid 2-(4-hydroxy-3-nitrobenzoyl)hydrazide] | 189 to 191 | 44 | 45 |
| CCCCCCc1ccc(-c2ccoc2C(=O)NNC(=O)c2ccc(O)c([N+](=O)[O-])c2)cc1 [Example 158, 3-(4-Hexylphenyl)-2-furancarboxylic acid 2-(4-hydroxy-3-nitrobenzoyl)hydrazide] | 144 to 146 | 5.9 | 7.1 |
| CCCCCOc1ccc(-c2ccoc2C(=O)NNC(=O)c2ccc(O)c([N+](=O)[O-])c2)cc1 [Example 159, 3-(4-Pentyloxyphenyl)-2-furancarboxylic acid 2-(4-hydroxy-3-nitrobenzoyl)hydrazide] | 156 to 157 | 31 | 60 |
| CCCc1ccc(-c2ccoc2C(=O)NNC(=O)c2ccc(O)c([N+](=O)[O-])c2)cc1 [Example 160, 3-(4-Propylphenyl)-2-furancarboxylic acid 2-(4-hydroxy-3-nitrobenzoyl)hydrazide] | 174 to 176 | 2.9 | 3.4 |
| CCCCOc1ccc(-c2ccoc2C(=O)NNC(=O)c2ccc(O)c([N+](=O)[O-])c2)cc1 [Example 161] | 155 to 156 | 100 | 140 |
| CCCCCc1ccc(-c2ccoc2C(=O)NNC(=O)c2ccc(O)c([N+](=O)[O-])c2)cc1 [Example 162, 3-(4-Pentylphenyl)-2-furancarboxylic acid 2-(4-hydroxy-3-nitrobenzoyl)hydrazide] | 163 to 165 | 9.6 | 8.6 |
| COc1ccc(COc2cccc(-c3ccoc3C(=O)NNC(=O)c3ccc(O)c([N+](=O)[O-])c3)c2)cn1 [Example 164, 3-[3-(2-Methoxy-5-pyridylmethyloxy)phenyl]-2-furancarboxylic acid 2-(4-hydroxy-3-nitrobenzoyl)hydrazide] | 180 to 181 | 3.9 | 6.5 |
| COc1ccc(COc2cccc(-c3ccoc3C(=O)NNC(=O)c3ccc(O)c([N+](=O)[O-])c3)c2)cc1 [Example 176, 3-[3-(4-Methoxybenzyloxy)phenyl]-2-furancarboxylic acid 2-(4-hydroxy-3-nitrobenzoyl)hydrazide] | 172 to 174 | 6.4 | 5.2 |
| CC(C)CCOc1cccc(-c2ccoc2C(=O)NNC(=O)c2ccc(O)c([N+](=O)[O-])c2)c1 [Example 180, 3-(3-Isopentyloxyphenyl)-2-furancarboxylic acid 2-(4-hydroxy-3-nitrobenzoyl)hydrazide] | 122 to 124 | 84 | 46 |
| CCCCOc1cccc(-c2ccoc2C(=O)NNC(=O)c2ccc(O)c([N+](=O)[O-])c2)c1 [Example 181, 3-(3-Butoxyphenyl)-2-furancarboxylic acid 2-(4-hydroxy-3-nitrobenzoyl)hydrazide] | 135 to 138 | 30 | 62 |
| CCCCCOc1cccc(-c2ccoc2C(=O)NNC(=O)c2ccc(O)c([N+](=O)[O-])c2)c1 [Example 182, 3-(3-Pentyloxyphenyl)-2-furancarboxylic acid 2-(4-hydroxy-3-nitrobenzoyl)hydrazide] | 96 to 99 | 49 | 50 |
| CC(C)COc1cccc(-c2ccoc2C(=O)NNC(=O)c2ccc(O)c([N+](=O)[O-])c2)c1 [Example 183, 3-(3-Isobutoxyphenyl)-2-furancarboxylic acid 2-(4-hydroxy-3-nitrobenzoyl)hydrazide] | 98 to 100 | 51 | 34 |
| CCCCCCOc1cccc(-c2ccoc2C(=O)NNC(=O)c2ccc(O)c([N+](=O)[O-])c2)c1 [Example 184, 3-(3-Hexyloxyphenyl)-2-furancarboxylic acid 2-(4-hydroxy-3-nitrobenzoyl)hydrazide] | 124 to 126 | 18 | 59 |
| CCCCCCCOc1cccc(-c2ccoc2C(=O)NNC(=O)c2ccc(O)c([N+](=O)[O-])c2)c1 [Example 185, 3-(3-Heptyloxyphenyl)-2-furancarboxylic acid 2-(4-hydroxy-3-nitrobenzoyl)hydrazide] | 141 to 144 | 20 | 23 |
| CCCCCCc1cccc(-c2ccoc2C(=O)NNC(=O)c2ccc(O)c([N+](=O)[O-])c2)c1 [Example 188, 3-(3-Hexylphenyl)-2-furancarboxylic acid 2-(4-hydroxy-3-nitrobenzoyl)hydrazide] | 87 to 89 | 26 | 28 |
| O=C(NNC(=O)c1occc1-c1cccc(Cc2ccccc2)c1)c1ccc(O)c([N+](=O)[O-])c1 [Example 189, 3-(3-Benzylphenyl)-2-furancarboxylic acid 2-(4-hydroxy-3-nitrobenzoyl)hydrazide] | 160 to 162 | 5.5 | 3 |
| O=C(NNC(=O)c1occc1-c1ccccc1)c1ccc(O)c(C(F)(F)F)c1 [Example 193, 3-phenyl-2-furancarboxylic acid 2-(4-hydroxy-3-trifluoromethylbenzoyl)hydrazide] | 117 to 121 | 330 | 350 |
| CC(C)=CCOc1cccc(-c2ccoc2C(=O)NNC(=O)c2ccc(O)c([N+](=O)[O-])c2)c1 [Example 196, 3-[3-(3-Methyl-2-butenyloxy)phenyl]-2-furancarboxylic acid 2-(4-hydroxy-3-nitrobenzoyl)hydrazide] | 84 to 85 | 40 | 63 |
| C=C(C)COc1cccc(-c2ccoc2C(=O)NNC(=O)c2ccc(O)c([N+](=O)[O-])c2)c1 [Example 197, 3-[3-(2-Methyl-2-propenyloxy)phenyl]-2-furancarboxylic acid 2-(4-hydroxy-3-nitrobenzoyl)hydrazide] | 127 to 129 | 37 | 56 |
| CC=CCOc1cccc(-c2ccoc2C(=O)NNC(=O)c2ccc(O)c([N+](=O)[O-])c2)c1 [Example 198, 3-[3-(2-Butenyloxy)phenyl]-2-furancarboxylic acid 2-(4-hydroxy-3-nitrobenzoyl)hydrazide] | 113 to 115 | 75 | 20 |
